What was measured:
[1] = cited from earlier work
[2] = system: patients with an autism spectrum disorder or an attention deficit disorder
Description: The patient is dosed with L-methylfolate orally once a day according to preparations available. The patient takes the medication at the same time of day and with a snack or meal. The patient is initially dosed with L-methylfolate according to weight as follows: • 25-45 lbs (11-20 kg): 2.5 mg • 46-60 lbs (21-27 kg): 5 mg • 61-90 lbs (28-41 kg): 7.5 mg • 91+ lbs (42+kg): 7.5-15 mg Dose Modifications and Duration of Therapy
L-methylfolate is administered in doses and forms appropriate for age. L-methylfolate is titrated upward as indicated by behavior improvement according to the results from the screens. Titration may occur from week 1 through 30 days as indicated by the physician. From 30 days to 90 days, the achieved dose at 30 days is maintained until 90 days to observe for tolerance to drug, side effects. During this time, if the child is not weaned from stimulant medications, attempts are made to lower the stimulant as tolerated and discontinue stimulants if at all possible.
In implementing therapy the first consideration is the presence of clinical signs consistent with previous or current diagnosis of an autism spectrum disorder or an attention deficit disorder. […] The established diagnosis was not a sole indicator for therapy.
Second, a review of the family history is necessary. […] Parents were questioned about the presence of ADHD or autism spectrum disorders in the immediate family or extended family. Of particular interest was the presence of other neuropsychiatric conditions, such as depression, anxiety, and bipolar disorder. Parents also were queried regarding the presence of heart disease, difficulties with pregnancy due infertility or miscarriages, leukemia, gastric and colon cancers, breast cancer and stroke. In elderly members of the family, the occurrence of dementia, Alzheimer's, and Parkinson's was also discussed. The above diseases have also been associated to varying degrees with the methylenetetrahydrofolate reductase defect.
Third, blood samples were collected and evaluated. The laboratory exams completed on the blood samples were: a complete blood count with differential, serum folate, serum B12, and serum homocysteine. The tests were performed to establish a baseline for red cell morphology while evaluating for any pre-existing pathologies related to anemia, leukemia, or other blood dycrasias. Serum folate and B12 have been implicated in certain pathologies of the red blood cell and are critical components in folate metabolism. Vitamin B12 in the range of 400 pg/ml or less has been associated with neuropsychiatric sequelae in 5-10% of population. (Quest Labs) Finally, elevated homocysteine levels in the serum have been associated with various disease states, particularly in the presence of the methylenetetrahydrofolate reductase gene polymorphisms. […] However, a few researchers have been able to evaluate severely compromised children.
Fourth, serum was evaluated for the presence of methylenetetrahydrofolate reductase polymorphisms as a predictor of condition severity and response to therapy. Given the expense of these analyses, it was decided to delay evaluation of the serum for the polymorphisms until a clinic response was determined.
In a preliminary trial, nineteen patients, ages 4-43 years, (3 female, 16 male) were randomly selected over the course of three months. Patients were permitted to remain on current medication or supplemental, i.e., fish oil and vitamins, therapies at parental request.

CP-450 system = conditions: cited from earlier work
[3] = via the kidneys; cited from earlier work
[4] = as a medical food or other suitable formulation; cited from earlier work
[5] = of the 14 patients, parental report

Compound	side effect, anecdotal report ([1]; one patient, dose increased to 1 mg/kg/d)	response to therapy as indicated by parents' correspondence and office visits ([2]; 14 remaining of 19 patients, ages 4-43 years, oral once daily, dose by weight 2.5-15 mg, more stable mood, increased attentiveness, improved sleep hygiene)	patients with intermediate responses [2, 5]	patients with significant improvements [2, 5]	side effects ([2]; preliminary experience)	time course of initial improvement ([2]; preliminary trial)	clinical response in patients negative for MTHFR gene polymorphisms ([2]; two children, parental reports)	response in patients positive for MTHFR gene polymorphisms ([2]; two of four patients with MTHFR analyses)	allergic reactions ([1]; oral use)	effect on CP-450 system (CP-450 system)	excretion [3]	blood brain barrier crossing [4]
Nc1nc(=O)c2c([nH]1)NCC(CNc1ccc(C(=O)N[C@@H](CCC(=O)O)C(=O)O)cc1)N2C=O (mixture of isomers) [folinic acid]	worsening of behavior symptoms	–	–	–	–	–	–	–	–	–	–	–
CN1c2c(nc(N)[nH]c2=O)NC[C@@H]1CNc1ccc(C(=O)N[C@@H](CCC(=O)O)C(=O)O)cc1 [L-methylfolate, 6(S)-5-methyltetrahydrofolate]	–	all have had a response to therapy	two	12	No side effects have been reported	3-5 days, two weeks, or 4-6 weeks	responding clinically	positive response to therapy	Allergic reactions have been documented	does not affect CP-450 system	rapidly excreted via the kidneys	crosses the blood brain barrier
